Test results published in patent US20100074920A1 (priority 2006, published 2010).
Read-outs that look alike come from different tables or passages of the source.

Key:
[1] = system: serum antibodies of test subjects 1-6; conditions: N-terminal conjugate on a streptavidin plate; sera 1-6
[2] = system: serum antibodies of test subjects 1-6; assay: ELISA on maleimide-activated plates (Cys-immobilized peptides); type: binding, human; conditions: Cys-conjugate on maleimide plate; sera 1-6
Description: Peptides containing cysteine were bound through the cysteine sulfhydryl group to maleimide activated plates (Reacti-Bind™ Maleimide activated plates, Pierce). The peptides sequences were as follows:
One hundred microliters of the peptide solution (0.5 nmol of peptide) was added to each well and allowed to react overnight at +4° C.
The unreacted maleimide groups were blocked with 2-mercaptoethanol: 150 μl of 1 mM 2-mercaptoethanol in 10 mM sodium phosphate/0.15 M NaCl/2 mM EDTA, pH 7.2 was added to each well and allowed to react for 1 hour at RT.
The serum obtained from person nr. […] Control wells contained no peptide but both 2-mercaptoethanol and BSA blockings were employed. All incubations were performed in duplicates.

[3] = system: commercial polyclonal antibody from rabbit; assay: ELISA control, peptide coated on maleimide plate; conditions: peptide coated on a maleimide plate; negligible binding without the peptide
Excerpt: A commercial peptide […] (HM11-peptide), which has been used as a recognition tag on recombinant proteins was used as a control and for testing of analysis of binding between a free core peptide and human antibodies. Due to restricted availability of at least N-terminal sequence the peptide would not be very effective in immunization against the viral as therapy. This peptide is known to be antigenic in animals under immunization conditions and antibodies including polyclonals from rabbit, mice etc.

[4] = system: serum antibodies of test subjects Serum 1B-8B; conditions: sera S1B-S8B; streptavidin immobilized peptide

Substance	immune response of the 6 sera, order of reactivity [1]	binding of serum antibodies (immune response), absorbance at 450 nm [4]	further results
Biotin-aminohexanoyl-PWVRGV [Peptide 3]	distinct pattern of immune recognition		
Biotin-aminohexanoyl-SYACKR [Peptide 2]	sera 2 and 5 showed strongest immune response before sera 3,4 and 6, while serum 1 showed weakest reaction		immune response of the 6 sera, order of reactivity [2]: reacted with sera similarly but reactions with serum 5 was weaker and the serum 6 showed the strongest response
CYPYDVPDYA [HA11, commercial peptide used as a recognition tag on recombinant proteins; control and core peptide]			binding of commercial polyclonal antibody from rabbit to the peptide [3]: effective binding
Biotin-aminocaproyl-CRPWVRGVC [Peptide 4B]		bind generally more strongly antibodies than the corresponding linear peptide 3	
Biotin-aminocaproyl-CRPKVRDQC [Peptide 3B]		unusually high response, especially with a person S5B	
